Experimental data from article PMC8412337, “Alpha-single chains of collagen type VI inhibit the fibrogenic effects of triple helical collagen VI in hepatic stellate cells” (PLoS ONE, 2021).

How the values were obtained:
primary rat HSC [1] = test: FACS analysis of apoptosis (propidium iodide DNA content); type: cell-based
Protocol: Activated HSC (third passage) were serum starved for 24 h in standard medium without FBS (starving medium), followed by dissociation with 500 μl 0.05% trypsin-EDTA (Biochrom, Berlin, Germany) and neutralization with 30 ml starving medium containing 1 g/l soybean trypsin inhibitor and 1 g/l ovalbumin. Alternatively, cells were scraped carefully with a cell-scraper (Costar, Cambridge, MA, USA) to exclude any potential effect of trypsin. After centrifugation at 800 x g for 10 min, cells were washed twice with 20 ml PBS (w/o Ca^2+, Mg^2+; Biochrom, Berlin, Germany), resuspended in starving medium and plated at a density of 1.5-2x10^6 in 1.7 ml starving medium in 6-well plates (NUNC, Wiesbaden, Germany). Cells were then treated with starving medium, soluble CI or CVI (both at a final concentration of 30 mg/l), or 10% FBS. For quantification of spreading, cells that had attached were counted 12 hours after plating and spreading efficiency was determined as percentage of plated cells in each group. De-novo DNA synthesis and apoptosis were assessed by morphological criteria, Cell death detection ELISA and FACS analysis as described below. […] After blocking the cells 1h with DMEM+1% FBS, the cells were incubated with primary antibodies against a-actin (Sigma-Aldrich, Taufkirchen, Germany, #A2547; dilution 1:200) and GFAP (Sigma-Aldrich, #G9269; dilution 1:20) followed by a washing step with PBS and the incubation with fluorescence-labeled secondary antibodies (Alexa Fluor 546 & Alexa Fluor 488, Molecular Probes, Eugene, USA, #A11030 & #A11034; dilution 1:100). […] Cells were analyzed by fluorescence microscopy (Zeiss, Jena, Germany; Kodak Ektachrome P1600 and a quantitative staining analysis was performed using Image J software (version 1.50i; National Institutes of Health, Bethesda, […], USA).
10^5 of freshly set cells were treated with starving medium, CI, CVI or 10% FBS for 24 or 48 hours as described before. […] Fixed cells were stained with propidium iodide (50 mg/l) in a final volume of 1 ml before being subjected to fluorescence activated cell sorting (FACS) analysis.

primary rat HSC [2] = test: DNA laddering (agarose gel electrophoresis); type: cell-based; conditions: after 24 h; 30 μg/ml CVI; serum-starved primary rat HSC
Protocol: Cells were treated 24 h with 0% FBS, CI, CVI or 10% FBS. Equal cell numbers (1.5x10^6) were used to detect oligonucleosomes using the Apoptotic DNA Ladder Kit (Boehringer Mannheim, Germany) according to the manufacturer’s instructions. The isolated DNA from each group was electrophoresed on a 1.5% Agarose-Gel at 75 V for 1.5 hours, stained with ethidium bromide and visualized via an UV light source (302 nm).

primary rat HSCs = test: [3H]-thymidine incorporation, de-novo DNA synthesis; type: cell-based; conditions: primary rHSCs
primary rat HSC [3] = test: Morphology and αSMA protein expression (activation of HSCs); type: cell-based
Protocol: Activated HSC (third passage) were serum starved for 24 h in standard medium without FBS (starving medium), followed by dissociation with 500 μl 0.05% trypsin-EDTA (Biochrom, Berlin, Germany) and neutralization with 30 ml starving medium containing 1 g/l soybean trypsin inhibitor and 1 g/l ovalbumin. Alternatively, cells were scraped carefully with a cell-scraper (Costar, Cambridge, MA, USA) to exclude any potential effect of trypsin. […] For quantification of spreading, cells that had attached were counted 12 hours after plating and spreading efficiency was determined as percentage of plated cells in each group. De-novo DNA synthesis and apoptosis were assessed by morphological criteria, Cell death detection ELISA and FACS analysis as described below. […] After blocking the cells 1h with DMEM+1% FBS, the cells were incubated with primary antibodies against a-actin (Sigma-Aldrich, Taufkirchen, Germany, #A2547; dilution 1:200) and GFAP (Sigma-Aldrich, #G9269; dilution 1:20) followed by a washing step with PBS and the incubation with fluorescence-labeled secondary antibodies (Alexa Fluor 546 & Alexa Fluor 488, Molecular Probes, Eugene, USA, #A11030 & #A11034; dilution 1:100). […]
Dislodged cells were centrifuged at 800 x g/10 min and lysed with 100 μl lysis buffer. […] The emitted fluorescence was assessed at 570 nm in a SpectraMax Gemini EM (Molecular Devices, Biberach an der Riß, Germany). […]

CFSC = test: Fibrosis-associated gene expression, quantitative real-time PCR; type: cell-based, rat
Protocol: 30 mg/l CVI, 133 mg/l of the monomeric alpha chains of CVI and/or TGF-β (2 ng/ml) were added after 24 h. […] Reverse transcribed complementary DNA templates were amplified by quantitative real-time polymerase chain reaction (PCR; Roche Diagnostics, Mannheim, Germany) using fluorogenic probes labeled with 6-carboxy-fluorescein and 6-carboxy-tetramethylrhodamin (Sigma- Genosys, Steinheim, Germany) and primer pairs (Invitrogen, Karlsruhe, Germany) specific for fibrosis-associated genes (for sequences see S2 Table). Gene expressions were normalized to glyceraldehyde phosphate dehydrogenase (GAPDH).

CVI: Human collagen VI isolated from placentas by pepsin digestion; triple helical, soluble
fold less apoptosis compared to the CI-treated group (primary rat HSC [1]; FACS, CVI-treated versus CI-treated group, p<0.05): approximately 3 fold | percentage of apoptotic cells (FACS) (primary rat HSC [1]; serum-starved primary rat HSC, text: within 24 hours, Fig 1C legend: 48 h, propidium iodide, three independent experiments): 25% | apoptosis-associated DNA laddering (primary rat HSC [2]): only faint | de-novo DNA synthesis ([3H]-thymidine incorporation) (primary rat HSCs; CVI at 10 μg/ml, within 24 hours, three independent experiments): stimulated a robust de-novo DNA synthesis | de-novo DNA synthesis ([3H]-thymidine incorporation) at increasing concentration (primary rat HSCs; CVI from 10 μg/ml up to 100 μg/ml, concentration dependent): equaling the effects of 10% FBS | protein expression of αSMA (primary rat HSC [3]; freshly isolated rat HSCs, immunostaining, detected as early as three days, immunoblotting): strongly induced | formation of cytoplasmic extensions (primary rat HSC [3]; primary rat HSC, serum-reduced medium containing 1% FBS, five days): induced the formation of distinct cytoplasmic extensions | kinetics of CI expression compared with TGF-β (CFSC; CFSC, medium containing 0.2% FBS, S3 Fig): slightly decreased and delayed | αSMA, CI and TGF-β expression (CFSC; serum-starved CFSC, 30 mg/l CVI, 24 h, qPCR normalized to GAPDH): potently induced | reduction of the expression of MMP-3 (CFSC; serum-starved CFSC, 24 h, TGF-β 2 ng/ml, CVI 30 mg/l, qPCR normalized to GAPDH): only slightly reduced | expression of TIMP-1 (CFSC; serum-starved CFSC, 24 h, qPCR normalized to GAPDH): stimulated the expression of TIMP-1
